These results are taken from patent EP0108147B1, “Use of a protoberberine alkaloid and composition containing same” (MAROKO, Peter R., priority 1982, dated 1983).

What all share (format): in vivo
Data set [1] has as its system dogs. The data set can be described thus: Supraventricular arrhythmias by topical application of aconitine to the atria. To be noted: intraveneous bolus 1-5 mg/Kg; aconitine (0.04%) solution.
Data set [2] concerns dogs with acute left ventricular failure. The data set can be described thus: MUGR ejection fraction in dogs with acute left ventricular failure after coronary embolization. The following applies: another dog, 0.2 mg/Kg/min.
In data set [3] the test system is Sprague-Daley rats. The data set can be described thus: Rat model of acute coronary artery occlusion, mortality. The following applies: for antiarrhythmic control after coronary artery occlusion: rat, in vivo. The text has this:
Another series of experiments were done using the rat model of acute coronary artery occlusion. In these experiments the effect of berberine was examined on mortality. Thus, Sprague-Daley rats (Charles River) weighing over 300 grams were anesthetized with ether, their chest opened in the 5th left intercostal space their heart everted and the left main coronary occluded with a surgical stitch. Thereafter the heart was repositioned and the thorax closed with a purse string suture, as described in more detail by us previously (Maclean, Fishbein, M. C. Braunwald, E. and Maroco, P. R., Long Term Presentation of Ischemic Myocardium After Experimental Coronary Artery Occlusion. J. Clin. Inv. 61, pages 541-551, 1978 and also in Maclean, D., Fishbein, M. D., Maroko, P. R. and Braunwald, Hyaluronidase-Induced Reductions In Myocardial Infarct Size. Science, 194, pages 199-200 (1976)). The mortality in rats weighing over […] was greater than in smaller rats.
After finishing the surgical procedure, the rats were randomized into controls (injection of 5% dextrose in water) and berberine treated (1 mg/Kg intravenously as a bolus).

Data set [4] has as its system dogs. The data set can be described thus: Protocol RK, single dose: dose response on systemic arterial pressure and heart rate. To be noted: for average fall in mean arterial pressure: 90 minutes after injection. The procedure: In 4 groups of dogs instrumented as in the last series of experiments (Protocol RK) the effects of increasing dose response on systemic arterial pressure was examined. The only difference from that protocol was that only one dose of berberine (as opposed to two) was administered.
The effects on the measured parameters is dose responsive. In four groups of dogs, the changes in blood pressure were analyzed. The dosage administered was7.5,15,30 and 70 mg/Kg. It was observed that generally blood pressure drop was most marked in the first 5 minutes. After 90 minutes following the injection (when the experiment wad discontinued), the average fall in mean arterial pressure in the group which received 15 mg/Kg was 19 mmHg; in the group that received 30 mg/Kg it was 37 mmHg and in the group that received 70 mg/Kg it was 63 mmHg.

The test system of data set [5] is patient with cardiomyopathy. The data set can be described thus: Berberine in one patient with cardiomyopathy in irreversible cardiogenic shock. The procedure:
In the last two hours before berberine it was not measurable. […] Stroke volume was 20 ml and then 36 and then 36 ml.

Data set [6] has as its system Mongrel dogs. The data set can be described thus: Protocol Z: continuous 35 minute infusion in anesthetized open-chest dogs, constant left ventricular pressure. The following applies: for reduction of calculated peripheral resistance: 0.2 mg/Kg/min. How it is done:
Mongrel dogs weighing between 15 and 25 kg were anesthetized with intravenous sodium thiamylal (20 mg/kg initially with additional doses given as needed). The dogs were intubated endotracheally, and respiration was maintained by a Harvard respirator. The chest was then opened in the fourth left intercostal space and the heart suspended temporarily in a pericardial cradle.
Aortic pressures were recorded through a polyethylene cannula introduced through the carotid artery (Statham P23 Db pressure transducer) and electrocardiogram (lead aVF) were recorded throughout the experiment on a polygraph (Gould Instruments). Another polyethylene cannula was placed in the left atrium for measurement of atrial pressure (Statham P23 Db pressure transducer). An electromagnetic flowmeter (Biotonix Laboratories) was placed around the ascending aorta and the aortic flow was recorded on a polygraph. Two catheters were inserted into the left ventricle through a femoral artery.
The first ("pigtail") served as a reference, while the second (Millar microtip transducer catheter) was connected through a Millar transducer (Millar Instruments, Houston, Texas) to the polygraph, where both left ventricular pressure curves were recorded simultaneously. The left ventricular end diastolic pressure was recorded separately through a Millar catheter. The first derivative of the left ventricular pressure (dP/dt) was obtained by electronic differentiation of the left ventricular pulse recorded through the Millar catheter.
A reservoir of blood was connected with the femoral artery in order to maintain constant left ventricular pressure during the experiment. In this protocol, similarly to protocol M, systemic arterial pressure was maintained constant in order to have accurate measurements of dP/dt which represent well left ventricular contractility when the systolic pressure is maintained constant. However, calculated total peripheral resistance will be higher (an underestimation of the fall). After stabilization of hemodynamics as reflected by continuously monitored parameters for 15 minutes, the substances to be studied were infused intravenously using a Harvard infusion pump. Registrations were made every 5 minutes at a paper speed of 200 mm/second, while all the parameters were recorded constantly at a speed of 2 mm/second. The dogs were randomly assigned to several groups: • Group a) Control - in these dogs a solution of 5% dextrose in water was infused in the same quantity as in the berberine treated animals (n = 7).
In all berberine, berberrubine coreximine and tetrahydropalmatine groiups the compounds were infused at constant rate for 35 minutes and the data analyzed at 5 minute intervals. • Group b) Berberine 0.7 mg/Kg/min (n = 10). • Group c) Berberine 0.2 mg/Kg/min (n = 7). • Group d) Berberine 0.02 mg/Kg/min (n = 7). • Group e) Berberrubine 0.2 mg/Kg/min (n = 7). • Group f) Tetrahydropalmatine 0.2 mg/Kg/min (n = 4). • Group g) Coreximine 0.2 mg/Kg/min (n = 8).
Therefore, group b, c and d were used to analyze the various effects of continuous infusion of berberine and its dose response and groups e and f and g used to examine the effects of these three other proberberines. Moreover, their effects were compared to the berberine treated dogs with the same dose (i.e. Group c).

For data set [7], the system named is dog. The data set can be described thus: Protocol M simile: high or repetitive infusions in single dogs. How it is done: It is noted that the dP/dt increased by 350% after the eighth dose and dF/dt by 450%.
In one dog using protocol M simile, 240 mg/Kg of berberine HCI was administered and dP/dt increased by 75%, aortic flow by 67%, heart rate fell from 150 to 114 beats/min., diastolic aortic pressure fell from 92 to 67 mmHg, and left atrial pressure fell from 8.5 to 7.5 mmHg.
When this type of experiment was repeated with tetrahydropalmatine, a first dose of 3.5 mg/Kg was given without maintaining the pressure constant and arterial pressure fell from 142/115 to 118/90 mmHg. When the second infusion was given with constant pressure, dP/dt increased by 17%.

The mark [8] stands for this setting: 0.7 mg/Kg/min, after 35 minutes.
Where [9] appears, read: 0.7 mg/Kg/min, over the control.
Where [10] appears, read: one dog, after the eighth dose, 0.7 mg/kg/min repeated up to 56 mg/Kg.

On to `COc1ccc2cc3[n+](cc2c1OC)CCc1cc2c(cc1-3)OCO2` [berberine], for which, in data set [1], the “atrial ectopic beats, atrial tachycardia or atrial fibrillation” value is on record as “effective in abolishing these arrhythmias”. Besides, the EF in data set [2] (at 20) and in data set [2] (at 30) was 55% in each case. The “rats that died within the first fifteen minutes” value in data set [3] (1 mg/Kg intravenously as a bolus, controls seventeen out of twenty-four) is “six out of twenty- two”. In addition, the “decrease of heart rate” value was determined as 20 beats/min in data set [4] (7.5 mg/Kg), 16 beats/min in data set [4] (15 mg/Kg), 40 beats/min in data set [4] (35 mg/Kg) and 103 beats/min in data set [4] (70 mg/Kg). Also, the “average fall in mean arterial pressure” value in data set [4] (15 mg/Kg) was 19 mmHg; in data set [4] (30 mg/Kg), 37 mmHg; in data set [4] (70 mg/Kg), 63 mmHg. Moreover, the primary arrhythmias entry in data set [4] (7.5 to 70 mg/Kg) is recorded as “No primary arrhythmias were obtained”. The cardiac output in data set [5] (0.2 and 0.4 mg/kg/min, after 30 minutes, from 1.2) is 3.5 L/min; in data set [5] (after 90 minutes), 2.2 L/min. The entries for the “increase of cardiac output” value in data set [5] (after 30 minutes) and in data set [5] (after 90 minutes) were 192% and 82%, respectively. Besides, the Stroke volume in data set [5] (first value after berberine, from 20 ml) worked out at 36 mL; in data set [5] (second value after berberine), 36 mL. For the same compound, the “increase in dP/dt” value in data set [6] (0.002 mg/Kg/min, one additional dog) is 20%; in data set [6] (0.02 mg/Kg/min, after 35 minutes), 35.8 ± 8.2%. Further, in data set [6] (0.02 mg/Kg/min (group d)), the “increase of pulse pressure” value is reported as 18.5 ± 10%. Also, in data set [6], the “reduction of calculated peripheral resistance” value is given as “over 30%”. Further, in data set [6] (0.2 mg/Kg/min (Table XIII)), the “Stroke volume (SV)” value is on record as “increased significantly”. Also, the “fall in diastolic arterial pressure (widening in the pulse-pressure, PP) relative to the other three drugs” value in data set [6] (0.2 mg/Kg/min (Table XIII)) was “more than twice as large”. Also, in data set [6] (0.2 mg/Kg/min (Table XIII)), the “fall of heart rate (HR)” value is 16-17%. Further, the “increase of aortic flow (stroke volume)” value in data set [6] (0.2 mg/Kg/min (group c)) was found to be 53.6 ± 17.7%. In addition, the “reduction of heart rate” value in data set [6] (0.7 mg/Kg/min) came to 32 ± 3%. Further, the “increase in LV dP/dt” value in data set [6] (0.7 mg/Kg/min, after 5 minutes) is recorded as 35%; in data set [6] (0.7 mg/Kg/min, at 35 minutes), 43.2 ± 7.0%. For the same compound, the “decrease of calculated total peripheral resistance” value in data set [6] (setting [8]) is 46.8 ± 9.3%. For the same compound, the “increase of aortic pulse-pressure” value in data set [6] (setting [8]) is on record as 125 ± 19%. Further, in data set [6] (0.7 mg/Kg/min, after 35 minutes, ascending aorta), the “increase of peak aortic blood flow” value is 73%. Moreover, in data set [6] (setting [9]), the “increase in cardiac output” value is 75 ± 29%. Further, in data set [6] (setting [9]), the “increase in stroke volume (calculated by planimetry)” value is listed as 169 ± 36%. Moreover, the “fall in heart rate” value in data set [6] (at the smaller doses) is on record as “no significant fall in heart rate”. Besides, the QTc interval entry in data set [6] (dog, in vivo) is listed as “overall increase”. Moreover, the P-R interval entry in data set [6] (i.v. for 60' (0.7 mg/Kg/min), total 42 mg/Kg) is listed as “does not increase the P-R interval”. Moreover, the “QRS complex or interval” value in data set [6] (over the period of i.v. administration (Fig. XVII)) was “not increased”. In addition, the “average increase of QTc” value in data set [6] (when dP/dt is increased by 43%) amounted to 16%. Further, the arrhythmias result in data set [7] (one dog, 240 mg/Kg) is “No arrhythmias were noted”; in data set [7] (one dog, up to 56 mg/Kg) it was “No arrhythmias were observed”. Besides, the “increase of aortic flow” value in data set [7] (one dog, 240 mg/Kg) was 67%. In addition, the “increase of dP/dt” value is given as 75% in data set [7] (one dog, 240 mg/Kg) and 350% in data set [7] (setting [10]). The same compound gave a left atrial pressure in data set [7] (one dog, 240 mg/Kg, from 8.5) of 7.5 mmHg. In data set [7] (one dog, 240 mg/Kg, from 92), this compound came in with a diastolic aortic pressure of 67 mmHg. In data set [7] (one dog, 240 mg/Kg, from 150), this compound came in with a heart rate of 114 beats/min. The “increase of dF/dt” value in data set [7] (setting [10]) is reported as 450%.
With `COc1ccc2cc3[n+](cc2c1O)CCc1cc2c(cc1-3)OCO2` [berberrubine], the “antiarrhythmic control after coronary artery occlusion” value in data set [3] was “like antiarrhythmic control is observable”. In addition, in data set [6], the “reduction of calculated peripheral resistance” value is recorded as “did not show that property to that pronounced degree”. In data set [6] (0.2 mg/Kg/min (Table XIII)), the “Stroke volume (SV)” value is recorded as “just slightly (and not statistically significantly)” and the “fall of heart rate (HR)” value is 16-17%.
In the case of `COc1cc2c(cc1O)C[C@H]1c3cc(O)c(OC)cc3CCN1C2` [coreximine], the “antiarrhythmic control after coronary artery occlusion” value in data set [3] is given as “like antiarrhythmic control is observable”. In data set [6], the “reduction of calculated peripheral resistance” value was “did not show that property to that pronounced degree”. Also, in data set [6] (0.2 mg/Kg/min (Table XIII)), the “Stroke volume (SV)” value is “increased significantly” and the “fall of heart rate (HR)” value was 16-17%. Moreover, the “result when the experiments are repeated” value in data set [7] (dog, in vivo) was “comparable results are obtained”.
